Data taken from patent US12612386B2, “Heteroaryl-triazole compounds as pesticides” (Bayer Aktiengesellschaft, priority 2020, dated 2026).

Columns and labels:
Format in all cases: in vivo
[1] = system: fall armyworm larvae (Spodoptera frugiperda); assay: whole plant or invertebrate; conditions: 168 h; for Emax at 20 g/ha / Emax at 100 g/ha: SPODFR, 7 dat (Table 4), read-out: % Efficacy; for Emax at 20 g/ha: 20 g ai/ha; for Emax at 100 g/ha: 100 g ai/ha
Procedure: Spodoptera frugiperda—Spray Test
(§1) • Solvent: 78.0 parts by weight acetone • 1.5 parts by weight dimethylformamide • Emulsifier: alkylarylpolyglycol ether
(§2) To produce a suitable preparation of active compound, 1 part by weight of active compound is mixed with the stated amount of solvents and is diluted with water, containing an emulsifier concentration of 1000 ppm, to the desired concentration. Further test concentrations are prepared by dilution with emulsifier containing water.
Maize (Zea mays) leaf sections are sprayed with a preparation of the active ingredient of the desired concentration. Once dry, the leaf sections are infested with fall armyworm larvae (Spodoptera frugiperda).
After 7 days mortality in % is determined. 100% means all caterpillars have been killed and 0% means none of the caterpillars have been killed.
Spodoptera frugiperda—Spray Test (SPODFR)
After the specified period of time, mortality in % is determined. 100% means all caterpillars have been killed and 0% means none of the caterpillars have been killed.

[2] = system: green peach aphid (Myzus persicae); assay: Myzus persicae spray test (MYZUPE); conditions: 120 h; for mortality at 100 g/ha: after 5 days; for Emax at 20 g/ha: 20 g ai/ha; for Emax at 100 g/ha: 100 g ai/ha
Procedure: Myzus persicae—Spray Test
• Solvent: 78.0 parts by weight acetone • 1.5 parts by weight dimethylformamide • Emulsifier: alkylarylpoly glycol ether
as §2
Chinese cabbage (Brassica pekinensis) leaf disks infected with all instars of the green peach aphid (Myzus persicae), are sprayed with a preparation of the active ingredient of the desired concentration.
After 5 days mortality in % is determined. 100% means all aphids have been killed and 0% means none of the aphids have been killed.
Myzus persicae—Spray Test (MYZUPE)
as §1
After the specified period of time, mortality in % is determined. 100% means all aphids have been killed and 0% means none of the aphids have been killed.

[3] = system: larvae of the banded cucumber beetle (Diabrotica balteata); assay: Diabrotica balteata spray test; conditions: 168 h, 100 g/ha (=32 μg/well), after 7 days, read-out: efficacy (seedling growth)
Procedure: Diabrotica balteata—Spray Test
(§3) • Solvent: 78.0 parts by weight of acetone • 1.5 parts by weight of dimethylformamide • Emulsifier: alkylarylpolyglycol ether
as §2, with “solvent,” for “solvents”, “and the concentrate” for “and”
Soaked wheat seeds (Triticum aestivum) are placed in a multiple well plate filled with agar and some water and are incubated for 1 day to germinate (5 seeds per well). The germinated wheat seeds are sprayed with a test solution containing the desired concentration of the active ingredient. Afterwards each unit is infected with 10-20 larvae of the banded cucumber beetle (Diabrotica balteata).
After 7 days efficacy in % is determined. 100% means all the seedlings have grown up like in the untreated, uninfected control; 0% means none of the seedlings have grown.

[4] = system: larvae of the southern green stink bug (Nezara viridula); assay: whole plant or invertebrate; conditions: 96 h
Procedure: Nezara viridula—Spray Test
as §3
as §2, with “solvent,” for “solvents”, “and the concentrate” for “and”
Barley plants (Hordeum vulgare) are sprayed with a test solution containing the desired concentration of the active ingredient and are infested with larvae of the southern green stink bug (Nezara viridula).
After 4 days mortality in % is determined. 100% means all the stink bugs have been killed; 0% means none of the stink bugs have been killed.

[5] = MYZUPE, 5 dat (Table 4), read-out: % Efficacy

Compound | mortality at 100 g/ha [1] [%] | mortality at 100 g/ha [2] [%] | pest or weed control at 32 µg/disc, 100 g/ha [3] [%] | mortality at 500 g/ha [4] [%] | also measured
C[C@H](NC(=O)c1cc(OC(F)(F)F)cc(S(=O)(=O)C(F)F)c1)c1nc(C2CC2)nn1-c1cc(C(=O)N(C)C)ncn1 [I-156] | 100 | 90 | 100 |  | 
CNC(=O)c1cc(-n2nc(C)nc2[C@H](C)NC(=O)c2cc(OC(F)F)cc(OC(F)F)c2)ncn1 [I-99] | 100 | 90 | 100 | 100 | 
C[C@H](NC(=O)c1cc(OC(F)(F)F)cc(C2(C#N)CC2)c1)c1ncnn1-c1cc(C(=O)NC2CC2)ncn1 [I-169] | 100 | 90 | 100 |  | 
C[C@H](NC(=O)c1cc(Cl)cc(S(=O)(=O)C(F)(F)F)c1)c1ncnn1-c1cc(C(N)=O)ncn1 [I-84] | 100 | 90 | 100 | 100 | Emax at 20 g/ha [1]: 100%; Emax at 100 g/ha [1]: 100%; Emax at 4 g/ha ([2]; MYZUPE, 4 g ai/ha, 5 dat (Table 4), read-out: % Efficacy): 90%; Emax at 20 g/ha [2, 5]: 100%; Emax at 100 g/ha [2, 5]: 90%
CCNC(=O)c1cc(-n2ncnc2[C@H](C)NC(=O)c2cc(OC(F)(F)F)cc(C3(C#N)CC3)c2)ncn1 [I-168] | 100 | 100 | 100 |  | 
Cc1nc([C@H](C)NC(=O)c2cc(Br)cc(OC(F)(F)F)c2)n(-c2cc(C(N)=O)ncn2)n1 [I-12] | 100 | 90 | 100 | 100 | 
C[C@H](NC(=O)c1cc(Cl)cc(S(=O)(=O)C(F)F)c1)c1nc(C2CC2)nn1-c1cc(C(=O)N(C)C)ncn1 [I-161] | 100 | 90 | 100 |  | 
C[C@H](NC(=O)c1cc(Cl)cc(S(C)(=O)=O)c1)c1nc(C2CC2)nn1-c1cc(C(N)=O)ncn1 [I-150] | 100 | 90 |  | 100 | 
C[C@H](NC(=O)c1cc(Cl)cc(S(C)(=O)=O)c1)c1nc(C2CC2)nn1-c1cc(C(=O)N(C)C)ncn1 [I-160] | 83 | 100 | 100 |  | 
CNC(=O)c1cc(-n2nc(C)nc2[C@H](C)NC(=O)c2cc(Br)cc(OC(F)F)c2)ncn1 [I-88] | 100 | 100 | 100 | 100 | 
CC(C)N(C)C(=O)c1cc(-n2ncnc2[C@H](C)NC(=O)c2cc(Br)cc(OC(F)F)c2)ncn1 [I-103] | 100 | 90 | 100 |  | 
C[C@H](NC(=O)c1cc(OC(F)(F)F)cc(C2(C#N)CC2)c1)c1nc(C2CC2)nn1-c1cc(C(=O)N(C)C)ncn1 [I-167] | 100 | 100 | 80 |  | 
C[C@H](NC(=O)c1cc(Cl)cc(S(=O)(=O)C(F)(F)F)c1)c1ncnn1-c1cc(C#N)ccn1 [I-075 Known from WO 2019197468, reference compound] |  |  |  |  | Emax at 20 g/ha [1]: 33%; Emax at 100 g/ha [1]: 100%; Emax at 20 g/ha [2, 5]: 70%; Emax at 100 g/ha [2, 5]: 90%
CC(C)N(C)C(=O)c1cc(-n2ncnc2[C@H](C)NC(=O)c2cc(OC(F)F)cc(OC(F)F)c2)ncn1 [I-97] | 100 | 90 |  |  | 
C[C@H](NC(=O)c1cc(Br)cc(S(C)(=O)=O)c1)c1nc(C2CC2)nn1-c1cc(C(N)=O)ncn1 [I-143] | 100 | 100 |  | 100 | 
CNC(=O)c1cc(-n2ncnc2[C@H](C)NC(=O)c2cccc(OC(F)(F)F)c2)ncn1 [I-110] | 100 | 90 | 100 | 100 | 

Compound | mortality at 100 g/ha [1] [%] | mortality at 100 g/ha [2] [%] | pest or weed control at 32 µg/disc, 100 g/ha [3] [%] | mortality at 500 g/ha [4] [%] | also measured
C[C@H](NC(=O)c1cc(C(F)(F)F)cc(S(C)(=O)=O)c1)c1nc(C2CC2)nn1-c1cc(C(=O)N(C)C)ncn1 [I-164] |  | 100 | 80 |  | 
Cc1nc([C@H](C)NC(=O)c2cc(Br)cc(Br)c2)n(-c2cc(C(N)=O)ncn2)n1 [I-71] | 100 | 90 | 100 | 90 | 
C[C@H](NC(=O)c1cc(I)cc(OC(F)F)c1)c1ncnn1-c1cc(C(N)=O)ncn1 [I-162] | 100 | 90 | 100 | 100 | 
C[C@H](NC(=O)c1cc(OC(F)(F)F)cc(C2CC2)c1)c1nc(C2CC2)nn1-c1cc(C(=O)N(C)C)ncn1 [I-159] | 100 | 90 | 100 |  | 
C[C@H](NC(=O)c1cc(Br)cc(C#N)c1)c1ncnn1-c1cc(C(N)=O)ncn1 [I-124] | 100 | 90 | 100 | 100 | mortality at 100 g/ha [4]: 100%
CC(C)NC(=O)c1cc(-n2ncnc2[C@H](C)NC(=O)c2cc(OC(F)(F)F)cc(C3(C#N)CC3)c2)ncn1 [I-163] | 100 | 100 | 100 |  | 
C[C@H](NC(=O)c1cc(OC(F)F)cc(OC(F)F)c1)c1nc(C2CC2)nn1-c1cc(C(N)=O)ncn1 [I-152] | 100 | 100 | 100 |  | 
C[C@H](NC(=O)c1cc(Cl)cc(OC(F)(F)C(F)F)c1)c1ncnn1-c1cc(C(N)=O)ncn1 [I-113, 6-(5-{(1S)-1-[3-chloro-5-(1,1,2,2-tetrafluoroethoxy)benzamido]ethyl}-1H-1,2,4-triazol-1-yl)pyrimidine-4-carboxamide] | 100 | 90 |  |  | 
C[C@H](NC(=O)c1cc(OC(F)(F)F)cc(S(=O)(=O)C(F)(F)F)c1)c1ncnn1-c1cc(C(N)=O)ncn1 [I-58] | 100 | 90 | 100 | 100 | 
C[C@H](NC(=O)c1cc(OC(F)(F)F)cc(S(=O)(=O)C(F)F)c1)c1ncnn1-c1cc(C(N)=O)ncn1 [I-45] | 100 | 90 | 100 | 100 | 
C[C@H](NC(=O)c1cc(Cl)cc(S(=O)(=O)C(F)(F)F)c1)c1ncnn1-c1ccccn1 [I-068 Known from WO 2019197468, reference compound] |  |  |  |  | Emax at 20 g/ha [2, 5]: 0%; Emax at 100 g/ha [2, 5]: 0%
C[C@H](NC(=O)c1cc(Cl)cc(OC(F)(F)F)c1)c1nc(C2CC2)nn1-c1cc(C(=O)N(C)C)ncn1 [I-166] | 100 | 100 | 100 |  | 
C[C@H](NC(=O)c1cccc(I)c1)c1ncnn1-c1cc(C(N)=O)ncn1 [I-48] | 100 | 90 | 100 | 100 | 
C[C@H](NC(=O)c1cc(Br)cc(S(=O)(=O)C(F)(F)F)c1)c1ncnn1-c1cc(C(N)=O)ncn1 [I-138] | 100 |  | 80 | 100 | 
C[C@H](NC(=O)c1cc(Br)cc(OC(F)(F)C(F)F)c1)c1ncnn1-c1cc(C(N)=O)ncn1 [I-112] | 100 | 100 | 100 |  | 
